Patent US12421242B2, “Substituted tetrahydropyrrolo-pyridinone compounds and their use in treating medical conditions” (Karuna Therapeutics, Inc., priority 2022, dated 2025)

Key:
[1] = target: T1, hM4 receptors (Homo sapiens, UniProt P08173); assay: Human M4 PAM pERK assay; format: cell-based; conditions: PAM mode
T1 construct: expressed in transfected cells; host or cells: CHO cells
T1 sequence (P08173 1-479): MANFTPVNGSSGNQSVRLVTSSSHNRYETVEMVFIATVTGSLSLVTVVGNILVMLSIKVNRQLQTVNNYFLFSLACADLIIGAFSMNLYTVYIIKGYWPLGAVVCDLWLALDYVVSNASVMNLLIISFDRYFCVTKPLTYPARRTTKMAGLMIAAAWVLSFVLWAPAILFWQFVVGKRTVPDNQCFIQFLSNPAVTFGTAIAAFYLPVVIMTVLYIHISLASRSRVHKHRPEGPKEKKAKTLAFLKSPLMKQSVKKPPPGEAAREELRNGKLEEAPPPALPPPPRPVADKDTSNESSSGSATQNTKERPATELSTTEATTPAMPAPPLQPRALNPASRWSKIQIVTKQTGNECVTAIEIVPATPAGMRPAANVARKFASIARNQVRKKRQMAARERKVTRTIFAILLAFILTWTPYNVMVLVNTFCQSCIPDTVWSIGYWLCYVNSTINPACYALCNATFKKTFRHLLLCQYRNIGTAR
In short: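 CHO cells expressing hM4 or rM4 were serum-starved 4 h, then given compound (ten-point curve, 10 μM top, duplicate) with an EC20 of acetylcholine (10 nM final) for 5 min at 37° C. Phospho-ERK in lysates was detected by TR-FRET.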

[2] = target: T2, human M4 receptor (Homo sapiens, UniProt P08173); assay: M4 GTPγS PAM assay; format: biochemical; conditions: CHO-K1 membranes expressing human M4, with EC20 acetylcholine (40 nM)
T2 construct: expressed in transfected cells
T2 sequence (P08173 1-479): T1 sequence (P08173 1-479)
In short: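 Membranes from CHO-K1 cells stably expressing human M4 preincubated 10-15 min with compound in HEPES/MgCl2/NaCl buffer with 0.1 µM GDP, then with EC20 acetylcholine (40 nM) for 10-15 min. [35S]GTPγS added for 1 h at room temperature; filter-bound radioactivity counted by scintillation.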

Structure (SMILES): Cc1c2c(n(C)c(=O)c1Cl)CN(C(=O)c1cnn(C(F)(F)F)c1)C2 [Compound I-1, 3-chloro-1,4-dimethyl-6-(1-(Trifluoromethyl)-1H-pyrazole-4-carbonyl)-1,5,6,7-tetrahydro-2H-pyrrolo[3,4-b]pyridin-2-one]
- EC50 [1]: < 100 nM
- EC50 [2]: 100 to 500 nM

Structure (SMILES): Cc1c2c(n(C)c(=O)c1Cl)CN(C(=O)c1cnn(C(F)(F)F)c1)[C@@H]2C [Compound I-76, (R)-3-Chloro-1,4,5-trimethyl-6-(1-(trifluoromethyl)-1H-pyrazole-4-carbonyl)-1,5,6,7-tetrahydro-2H-pyrrolo[3,4-b]pyridin-2-one]
- EC50 [1]: < 100 nM
- EC50 [2]: < 100 nM

Structure (SMILES): COc1c2c(n(C)c(=O)c1C)CN(C(=O)c1cnn(C(F)(F)F)c1)C2 [Compound I-87]
- EC50 [1]: < 100 nM
- EC50 [2]: 100 to 500 nM
